Measured values taken from paper PMC5725799, “Comparative binding properties of the tau PET tracers THK5117, THK5351, PBB3, and T807 in postmortem Alzheimer brains” (Alzheimer's Research & Therapy, 2017).

Tested on: tau
Assay: ^11C-PBB3 autoradiography and competition on large frozen AD brain sections
Assay type: binding, human
Parameters: NSP Binding: unit not given here
Method: Adjacent sections were used for autoradiography with ^11C-THK5351, ^11C-PBB3, and ^18F-T807. The frozen sections were allowed to reach room temperature, incubated for 30 minutes at room temperature with ^11C-THK5351 (0.4–0.56 nM; […]; specific activity 442–794 GBq/μmol) or for 55 minutes at room temperature with ^18F-T807 (0.04 nM; specific activity 281 GBq/μmol). We used 10 μM unlabeled THK5351, 10 μM unlabeled PBB3, and 10 μM unlabeled T807 to determine the extent of nonspecific binding for each tracer. The sections were rinsed three times for 5 minutes each with cold binding buffer, followed by a quick dip in cold distilled water. The sections were dried and exposed for 1 h (for ^11C-THK5351 and ^11C-PBB3) or for 3 h (^18 F-T807) on a phosphor imaging plate and then read using the BAS-2500 phosphor imager.
For all the autoradiography studies, the regions of interest were drawn manually on the autoradiogram using multigauge software and were used for the semiquantitative analyses. Photostimulated luminescence per square millimeter (PSL/mm^2) was transformed to picomoles per cubic millimeter using a transformation factor that took into account the resolution of the image, the pixel value for the concentration of ligand, and the thickness of the sections: (PSL/mm^2 value)/([pixel value per pmol] × [(resolution/1000)^2] × [cryosection thickness]/1000).

[1] = AD1, Basal ganglia, vs Unlabelled PBB3
[2] = AD1, Basal ganglia, vs Unlabelled T807
[3] = AD1, Frontal cortex, vs Unlabelled PBB3
[4] = AD1, Frontal cortex, vs Unlabelled T807
[5] = AD1, Frontal cortex, vs Unlabelled THK5351
[6] = AD1, Insula, vs Unlabelled PBB3
[7] = AD1, Insula, vs Unlabelled T807
[8] = AD1, Temporal cortex, vs Unlabelled PBB3
[9] = AD1, Temporal cortex, vs Unlabelled T807
[10] = AD1, Temporal cortex, vs Unlabelled THK5351
[11] = AD2, Basal ganglia, vs Unlabelled PBB3
[12] = AD2, Basal ganglia, vs Unlabelled T807
[13] = AD2, Basal ganglia, vs Unlabelled THK5351
[14] = AD2, Frontal cortex, vs Unlabelled PBB3
[15] = AD2, Frontal cortex, vs Unlabelled T807
[16] = AD2, Frontal cortex, vs Unlabelled THK5351
[17] = AD2, Insula, vs Unlabelled PBB3
[18] = AD2, Insula, vs Unlabelled T807
[19] = AD2, Insula, vs Unlabelled THK5351
[20] = AD2, Temporal cortex, vs Unlabelled PBB3
[21] = AD2, Temporal cortex, vs Unlabelled T807
[22] = AD2, Temporal cortex, vs Unlabelled THK5351
[23] = AD3, Basal ganglia, vs Unlabelled PBB3
[24] = AD3, Basal ganglia, vs Unlabelled T807
[25] = AD3, Basal ganglia, vs Unlabelled THK5351
[26] = AD3, Frontal cortex, vs Unlabelled PBB3
[27] = AD3, Frontal cortex, vs Unlabelled T807
[28] = AD3, Frontal cortex, vs Unlabelled THK5351
[29] = AD3, Insula, vs Unlabelled PBB3
[30] = AD3, Insula, vs Unlabelled T807
[31] = AD3, Insula, vs Unlabelled THK5351
[32] = AD3, Temporal cortex, vs Unlabelled PBB3
[33] = AD3, Temporal cortex, vs Unlabelled T807
[34] = AD3, Temporal cortex, vs Unlabelled THK5351

## [11CH3]Nc1ccc(/C=C/C=C/c2nc3ccc(O)cc3s2)cn1 [^11C-PBB3, (5-((1E,3E)-4-(6-[^11C]methylamino)pyridin-3-yl)buta-1,3-dien-1-yl)benzo[d]thiazol-6-ol]
[1]
  % of specific binding: 50%
  NSP Binding: 2849
  Specific Binding: 2796
  Total Binding: 5645
[2]
  % of specific binding: 20%
  NSP Binding: 3201
  Specific Binding: 802
  Total Binding: 4004
[3]
  % of specific binding: 51%
  NSP Binding: 3317
  Specific Binding: 3433
  Total Binding: 6750
[4]
  % of specific binding: 17%
  NSP Binding: 3919
  Specific Binding: 782
  Total Binding: 4701
[5]
  % of specific binding: 22%
  NSP Binding: 1579
  Specific Binding: 439
  Total Binding: 2018
[6]
  % of specific binding: 45%
  NSP Binding: 3353
  Specific Binding: 2690
  Total Binding: 6043
[7]
  % of specific binding: 13%
  NSP Binding: 3842
  Specific Binding: 566
  Total Binding: 4409
[8]
  % of specific binding: 41%
  NSP Binding: 3425
  Specific Binding: 2352
  Total Binding: 5777
[9]
  % of specific binding: 4%
  NSP Binding: 4009
  Specific Binding: 178
  Total Binding: 4187
[10]
  % of specific binding: 28%
  NSP Binding: 1569
  Specific Binding: 596
  Total Binding: 2164
[11]
  % of specific binding: 47%
  NSP Binding: 3052
  Specific Binding: 2700
  Total Binding: 5752
[12]
  % of specific binding: 21%
  NSP Binding: 2790
  Specific Binding: 751
  Total Binding: 3541
[13]
  % of specific binding: 19%
  NSP Binding: 1517
  Specific Binding: 367
  Total Binding: 1884
[14]
  % of specific binding: 51%
  NSP Binding: 3051
  Specific Binding: 3187
  Total Binding: 6238
[15]
  % of specific binding: 15%
  NSP Binding: 3252
  Specific Binding: 595
  Total Binding: 3847
[16]
  % of specific binding: 17%
  NSP Binding: 1619
  Specific Binding: 341
  Total Binding: 1960
[17]
  % of specific binding: 48%
  NSP Binding: 3100
  Specific Binding: 2827
  Total Binding: 5927
[18]
  % of specific binding: 21%
  NSP Binding: 2838
  Specific Binding: 748
  Total Binding: 3585
[19]
  % of specific binding: 20%
  NSP Binding: 1580
  Specific Binding: 400
  Total Binding: 1979
[20]
  % of specific binding: 59%
  NSP Binding: 2988
  Specific Binding: 4222
  Total Binding: 7210
[21]
  % of specific binding: 12%
  NSP Binding: 3425
  Specific Binding: 448
  Total Binding: 3874
[22]
  % of specific binding: 36%
  NSP Binding: 1506
  Specific Binding: 831
  Total Binding: 2336
[23]
  % of specific binding: 48%
  NSP Binding: 2989
  Specific Binding: 2786
  Total Binding: 5775
[24]
  % of specific binding: 13%
  NSP Binding: 2721
  Specific Binding: 422
  Total Binding: 3143
[25]
  % of specific binding: 23%
  NSP Binding: 1577
  Specific Binding: 481
  Total Binding: 2058
[26]
  % of specific binding: 56%
  NSP Binding: 3132
  Specific Binding: 4039
  Total Binding: 7171
[27]
  % of specific binding: 21%
  NSP Binding: 3247
  Specific Binding: 879
  Total Binding: 4125
[28]
  % of specific binding: 27%
  NSP Binding: 1832
  Specific Binding: 678
  Total Binding: 2511
[29]
  % of specific binding: 46%
  NSP Binding: 3401
  Specific Binding: 2848
  Total Binding: 6249
[30]
  % of specific binding: 8%
  NSP Binding: 3261
  Specific Binding: 294
  Total Binding: 3555
[31]
  % of specific binding: 18%
  NSP Binding: 1815
  Specific Binding: 405
  Total Binding: 2220
AD3, Temporal cortex, 0.4nM
  Total Binding: 6400 pmol/mm^3
[32]
  % of specific binding: 50%
  NSP Binding: 3203
  Specific Binding: 3207
  Total Binding: 6409
[33]
  % of specific binding: 11%
  NSP Binding: 3217
  Specific Binding: 396
  Total Binding: 3612
[34]
  % of specific binding: 18%
  NSP Binding: 1818
  Specific Binding: 397
  Total Binding: 2215
